Drawing on PubChem BioAssay (NCI), this text covers GI50 and TGI for six compounds.

SMILES strings stand for the structures. Values joined by “and” are separate entries in the source; they are usually repeats but may differ in a detail not shown here. Identical values can stand only once.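 Tested at 5 concentrations; 48 h exposure; 96-well plates; endpoints linearly interpolated, else capped at highest concentration. Abbreviation: GI50, concentration required for 50% inhibition of growth. Definition used: TGI = concentration required for complete inhibition of growth.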

Test systems include NCI/ADR-RES ovarian; NCI-H23 lung; SK-OV-3 ovarian; MDA-MB-231 breast; ACHN renal; UO-31 renal; NCI-H226 lung; SK-MEL-28 melanoma; SNB-75 CNS; HCT-15 colon.
What all share (test): DTP human tumour cell line panel, 48 h

Take `COc1ccc2c(c1)C(=O)c1c-2n(CCCN(C)C)c(=O)c2cc([N+](=O)[O-])ccc12`: the GI50 in the assay on NCI/ADR-RES ovarian is less than 0.01 µM; with NCI-H23 lung it was less than 0.01 µM; in the assay with SK-OV-3 ovarian, less than 0.01 µM; with MDA-MB-231 breast, 1.08 µM; in the assay with ACHN renal it was less than 0.01 µM; with UO-31 renal, less than 0.01 µM. The GI50 with NCI-H226 lung is less than 0.0227 µM; in the assay on SK-MEL-28 melanoma, 0.192 µM; in the assay with SNB-75 CNS it was less than 0.01 µM; in the assay with HCT-15 colon, 0.0239 µM. For the same compound, the TGI is 0.188 µM in the assay with NCI/ADR-RES ovarian; 0.0849 µM in the assay with NCI-H23 lung; 0.666 µM in the assay on SK-OV-3 ovarian; 2.83 µM in the assay with MDA-MB-231 breast; 0.103 µM with ACHN renal; 0.0294 µM in the assay on UO-31 renal. For the same compound, the total growth inhibition concentration (TGI) came to 1.53 µM in the assay with NCI-H226 lung, 2.59 µM in the assay on SK-MEL-28 melanoma, 2.74 µM in the assay on SNB-75 CNS and 1.29 µM with HCT-15 colon.

On to `COC(=O)c1cc2cc(/C=C3/SC(=S)N(N(C(C)=O)C(C)=O)C3=O)oc2n1Cc1ccccc1`, for which the GI50 was 14.4 µM in the assay with NCI/ADR-RES ovarian; 21.4 µM in the assay on NCI-H23 lung; 37.4 µM in the assay on SK-OV-3 ovarian; 20.6 µM in the assay with MDA-MB-231 breast; 18.3 µM in the assay with ACHN renal; 29.7 µM in the assay with UO-31 renal. For the same compound, the GI50 is 21.9 µM with NCI-H226 lung, 38.4 µM with SK-MEL-28 melanoma, 37.1 µM with SNB-75 CNS and 15 µM with HCT-15 colon. Besides, the concentration for total growth inhibition (TGI) in the assay on NCI/ADR-RES ovarian is 35 µM; in the assay on NCI-H23 lung, 44.6 µM; in the assay on SK-OV-3 ovarian, 89.9 µM; in the assay with MDA-MB-231 breast, 50.4 µM; in the assay with ACHN renal it was 35.9 µM; in the assay on UO-31 renal, more than 100 µM. Moreover, the total growth inhibition concentration (TGI) was 45.2 µM in the assay with NCI-H226 lung, more than 100 µM in the assay on SK-MEL-28 melanoma, more than 100 µM in the assay with SNB-75 CNS and 52.1 µM with HCT-15 colon.

With `COc1ccc2nc3ccccc3c(NCCNCC(C)O)c2c1` (stereo not given), the GI50 in the assay with NCI/ADR-RES ovarian is 5.11 µM; with NCI-H23 lung it was 0.367 µM; with SK-OV-3 ovarian, 0.612 µM; with MDA-MB-231 breast, 0.31 µM; in the assay with ACHN renal, 0.375 µM; in the assay with UO-31 renal, 0.398 µM. Also, the GI50 in the assay on NCI-H226 lung was 0.708 µM; in the assay on SK-MEL-28 melanoma, 0.539 µM; in the assay with SNB-75 CNS, 0.781 µM; with HCT-15 colon, 0.461 µM. Also, the concentration for total growth inhibition (TGI) in the assay with NCI/ADR-RES ovarian came to 39.4 µM; in the assay on NCI-H23 lung, 2.05 µM; with SK-OV-3 ovarian, 9.12 µM; in the assay on MDA-MB-231 breast, 1.85 µM; with ACHN renal, 14.4 µM; with UO-31 renal it was 2.39 µM. Further, the concentration for total growth inhibition (TGI) with NCI-H226 lung was found to be 4.79 µM; with SK-MEL-28 melanoma it was 2.77 µM; in the assay on SNB-75 CNS, 2.59 µM; with HCT-15 colon, 10.6 µM.

On to `CC/C=C\C[C@H]1C/C=C2/C(=O)C(Cl)=C[C@@H]2C/C=C\CCCC(=O)O1`, for which the concentration for 50% growth inhibition (GI50) is 0.423 µM in the assay on NCI/ADR-RES ovarian; 0.459 µM in the assay on NCI-H23 lung; 1.04 µM in the assay with SK-OV-3 ovarian; 0.733 µM with MDA-MB-231 breast; 0.3 µM in the assay on ACHN renal; 0.352 µM with UO-31 renal. Moreover, the GI50 in the assay on NCI-H226 lung is 0.524 µM; in the assay with SK-MEL-28 melanoma, 0.46 µM; with SNB-75 CNS it was 1.19 µM; in the assay on HCT-15 colon, 0.109 µM. Moreover, the total growth inhibition concentration (TGI) in the assay on NCI/ADR-RES ovarian was determined as 2.37 µM; with NCI-H23 lung it was 1.22 µM; with SK-OV-3 ovarian, 3.49 µM; in the assay on MDA-MB-231 breast it was 4.61 µM; in the assay on ACHN renal, 0.799 µM; in the assay on UO-31 renal, 0.703 µM. For the same compound, the TGI with NCI-H226 lung is 1.56 µM; in the assay with SK-MEL-28 melanoma, 1.15 µM; in the assay with SNB-75 CNS, 5.39 µM; in the assay with HCT-15 colon, 0.72 µM.

For `N=C(CC(=O)Nc1ccccn1)c1ccccc1`, the TGI in the assay on NCI/ADR-RES ovarian, in the assay with NCI-H23 lung, in the assay with SK-OV-3 ovarian, in the assay on MDA-MB-231 breast, with ACHN renal and in the assay with UO-31 renal was more than 100 µM each time. The TGI in the assay with NCI-H226 lung, in the assay with SK-MEL-28 melanoma, with SNB-75 CNS and in the assay on HCT-15 colon was more than 100 µM throughout.

Take `CNC(=O)c1cc(Oc2ccc(NC(=O)Nc3cc(C(C)(C)C)nn3-c3ccc4ncccc4c3)c(F)c2)ccn1`: the GI50 with NCI/ADR-RES ovarian is 2.65 µM and 3.36 µM; with NCI-H23 lung, 1.65 µM and 1.26 µM; in the assay on SK-OV-3 ovarian, 1.59 µM and 2.34 µM; in the assay on MDA-MB-231 breast it was 0.827 µM and 0.963 µM; in the assay with ACHN renal it was 0.915 µM and 0.475 µM; with UO-31 renal it was 1.62 µM and 1.78 µM. Moreover, the GI50 was 0.272 µM and 0.822 µM in the assay on NCI-H226 lung; 0.264 µM and 0.297 µM in the assay with SK-MEL-28 melanoma; 1.09 µM and 1.01 µM in the assay with SNB-75 CNS; 2.01 µM and 2.35 µM in the assay on HCT-15 colon. In addition, the total growth inhibition concentration (TGI) is 8.39 µM and 58.4 µM in the assay with NCI/ADR-RES ovarian; 5.91 µM and 4.78 µM with NCI-H23 lung; 6.59 µM and 7.8 µM in the assay with SK-OV-3 ovarian; 7.12 µM and 5.78 µM with MDA-MB-231 breast; 7.47 µM and > 23.6 µM in the assay with ACHN renal; 7.7 µM and 6.39 µM in the assay on UO-31 renal. In addition, the TGI in the assay on NCI-H226 lung is 7.24 µM and 4.26 µM; with SK-MEL-28 melanoma, 2.62 µM and 2.8 µM; in the assay with SNB-75 CNS it was 2.7 µM and 3.01 µM; with HCT-15 colon, 7.3 µM and 8.53 µM.

What is called GI50 is the concentration that inhibits growth by half. In general, TGI refers to the concentration at which net growth stops.
